Measurements from patent US11911353B2, “Fatty acid synthase inhibitor and application thereof” (Jiangnan University, priority 2019, dated 2024).

Columns and labels:
[1] = tested on: tumor cells 22RV1, PC-3, HT-29, Hela, Hep G2, CaCo-2 and HCT116; test: MTT proliferation of various tumor cells at single concentration (FIG. 2); assay type: cell-based; details: 10 μM, 72 hours, 7 different tumor cells
Description: Cell survival rate=(OD570−OD630)/(OD570 negative control−OD630 negative control); wherein, OD570: OD570 value of each treatment group; OD630: OD630 value of each treatment group; OD570 control: OD570 value of the negative control group; OD630 control: OD630 value of the negative control group.

[2] = tested on: prostate cancer cells PC-3; test: Fatty acid content and composition by GC/MS, PC-3 (FIG. 5); assay type: cell-based; details: PC-3, 20 μM, 24 hours
Description: […]

transplanted tumors PC3 = test: Growth of transplanted tumors PC3 in nude mice (FIG. 8); assay type: in vivo; details: 5 mg/kg intraperitoneally every 2 days, four weeks
Description: […]

O=C(CCCC(=O)Nc1ccc(Br)cc1)N/N=C/c1cc(Br)ccc1O [Compound I-1]
effect on proliferation of tumor cells [1]: significantly improved inhibitory effect on tumor proliferation
fatty acid content of 16:0 [2]: lower than that of the control group
total fatty acid content [2]: significantly lower than that of the control group
HE staining of transplanted tumor tissue (transplanted tumors PC3; FIG. 8B): dark dotted area is significantly reduced
tumor mass of mice (transplanted tumors PC3; PC3 transplanted tumors): significantly lower than that of the control group
